Measurements reported in ChEMBL document CHEMBL1144687, “Pim2 inhibitors from the Papua New Guinean plant Cupaniopsis macropetala” (J Nat Prod, 2008).

Target: Serine/threonine-protein kinase pim-2 (Homo sapiens, UniProt Q9P1W9)
Experiment: Inhibition of Pim2 kinase

Sequence of Serine/threonine-protein kinase pim-2 (Q9P1W9 whole entry): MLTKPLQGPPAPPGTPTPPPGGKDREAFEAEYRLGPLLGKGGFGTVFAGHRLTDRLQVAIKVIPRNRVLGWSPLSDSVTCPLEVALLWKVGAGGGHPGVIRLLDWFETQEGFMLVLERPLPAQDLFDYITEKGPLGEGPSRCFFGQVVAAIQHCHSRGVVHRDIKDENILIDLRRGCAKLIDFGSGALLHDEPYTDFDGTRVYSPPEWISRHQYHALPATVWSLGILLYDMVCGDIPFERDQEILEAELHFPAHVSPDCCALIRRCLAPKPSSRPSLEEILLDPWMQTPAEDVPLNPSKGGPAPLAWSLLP

SMILES	IC50 [µM]
NCCc1ccc(OC(=O)c2cc(O)c(O)c(O)c2)cc1 [GALLOYL TYRAMINE]	161
C[C@@H]1O[C@@H](Oc2c(-c3ccc(O)c(O)c3)oc3cc(O)cc(O)c3c2=O)[C@H](O)[C@H](O)[C@H]1O [QUERCITRIN]	25
